The results in this text go back to PubChem BioAssay AID328 (DTP/NCI, 2004).

Values joined by “and” are separate entries in the source; they are usually repeats but may differ in a detail not shown here. Equal values may be shown once. Inconclusive results and toxic doses are left out.

The test system of this test is BDF1 mice, P388 leukemia ip, median survival T/C. Description: NCI In Vivo Anticancer Drug Screen. Data for tumor model P388 Leukemia (intraperitoneal) in B6D2F1 (BDF1) mice. Conditions: endpoint: median survival time, higher = longer survival. A digest of the protocol:
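Compound-treated tumour-bearing mice were compared with vehicle-treated controls. Survival was recorded, and the value is the treated-group measurement divided by the control-group measurement (T/C).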

[1] abbreviates: dose: 100.0 mg/kg/injection, schedule: Q04DX003 (ip), vehicle: Klucel (hydroxypropylcellulose) (HPC).
The mark [2] stands for this setting: dose: 400.0 mg/kg/injection, schedule: Q04DX003 (ip), vehicle: Klucel (hydroxypropylcellulose) (HPC).
The mark [3] stands for this setting: dose: 25.0 mg/kg/injection, schedule: Q01DX009 (ip), vehicle: Klucel (hydroxypropylcellulose) (HPC).
Setting [4] is: dose: 50.0 mg/kg/injection, schedule: Q01DX009 (ip), vehicle: Klucel (hydroxypropylcellulose) (HPC).
The mark [5] stands for this setting: dose: 200.0 mg/kg/injection, schedule: Q01DX009 (ip), vehicle: Klucel (hydroxypropylcellulose) (HPC).
[6] abbreviates: dose: 200.0 mg/kg/injection, schedule: Q04DX003 (ip), vehicle: Klucel (hydroxypropylcellulose) (HPC).
[7] abbreviates: dose: 100.0 mg/kg/injection, schedule: Q01DX009 (ip), vehicle: Klucel (hydroxypropylcellulose) (HPC).
Setting [8] is: dose: 200.0 mg/kg/injection, schedule: Q01DX009 (ip), vehicle: saline with Tween-80.

For the compound `CCCCCCCC(=O)NCCCC`, the T/C is, setting by setting: (dose: 100.0 mg/kg/injection, schedule: Q01DX001 (ip), vehicle: Klucel (hydroxypropylcellulose) (HPC)) 104 % of control; under setting [1], 91 % of control; (dose: 200.0 mg/kg/injection, schedule: Q01DX001 (ip), vehicle: Klucel (hydroxypropylcellulose) (HPC)) 86 % of control; (dose: 400.0 mg/kg/injection, schedule: Q01DX001 (ip), vehicle: Klucel (hydroxypropylcellulose) (HPC)) 104 % of control; under setting [2], 100 % of control.

For `O=C1NC(=O)C2(CCCCC2)N1`, the T/C is, setting by setting: under setting [3], 91 % of control; (dose: 25.0 mg/kg/injection, schedule: Q04DX003 (ip), vehicle: Klucel (hydroxypropylcellulose) (HPC)) 90 % of control; under setting [4], 100 % of control; (dose: 50.0 mg/kg/injection, schedule: Q04DX003 (ip), vehicle: Klucel (hydroxypropylcellulose) (HPC)) 100 % of control; under setting [1], 104 % of control.

As for `CCN(CC)CCOC(=O)c1ccc(OCCOc2ccc(C(C)(C)CC(C)(C)C)cc2)c([N+](=O)[O-])c1`, the T/C (dose: 75.0 mg/kg/injection, schedule: Q04DX003 (ip), vehicle: saline sonified) is 110 % of control; the T/C (dose: 150.0 mg/kg/injection, schedule: Q04DX003 (ip), vehicle: saline sonified) is 110 % of control; the T/C (dose: 300.0 mg/kg/injection, schedule: Q04DX003 (ip), vehicle: saline sonified) was 105 % of control.

Consider `Oc1cc(CN(CCCl)CCCl)c(O)cc1CN(CCCl)CCCl`, for which the T/C was 170 % of control (dose: 0.63 mg/kg/injection, schedule: Q01DX010 (ip), vehicle: saline); 163 % of control and 210 % of control (dose: 1.25 mg/kg/injection, schedule: Q01DX010 (ip), vehicle: saline); 177 % of control and 220 % of control (dose: 2.5 mg/kg/injection, schedule: Q01DX010 (ip), vehicle: saline); 165 % of control (dose: 5.0 mg/kg/injection, schedule: Q01DX010 (ip), vehicle: saline).

As to `CCOc1ccc(/C=N/NS(=O)(=O)c2ccc(C)cc2)cc1`, the T/C is, setting by setting: under setting [1], 100 % of control; under setting [5], 92 % of control; under setting [6], 100 % of control; under setting [2], 100 % of control.

For the compound `COc1ccc(/C=C(\CC(=O)O)C(=O)O)cc1OC`, the T/C is 100 % of control under setting [7]; 100 % of control under setting [1]; 109 % of control under setting [5]; 100 % of control under setting [6]; 95 % of control (dose: 400.0 mg/kg/injection, schedule: Q01DX009 (ip), vehicle: Klucel (hydroxypropylcellulose) (HPC)); 90 % of control under setting [2].

Regarding `COC(=O)[C@]1(C)CCC[C@]2(C)[C@H]3CC4OO[C@@]3(CC[C@H]21)[C@H]1O[C@@]41C(C)C`, the T/C (dose: 100.0 mg/kg/injection, schedule: Q01DX009 (ip), vehicle: other) was 120 % of control; the T/C (dose: 100.0 mg/kg/injection, schedule: Q04DX003 (ip), vehicle: other) was 113 % of control; the T/C (dose: 132.0 mg/kg/injection, schedule: Q01DX009 (ip), vehicle: other) was 100 % of control; the T/C (dose: 200.0 mg/kg/injection, schedule: Q01DX009 (ip), vehicle: other) is 87 % of control; the T/C (dose: 200.0 mg/kg/injection, schedule: Q04DX003 (ip), vehicle: other) was 118 % of control; the T/C (dose: 400.0 mg/kg/injection, schedule: Q04DX003 (ip), vehicle: other) is 104 % of control.

Take `Cn1cc(N)c2ccccc2c1=O`: the T/C by setting is: (dose: 50.0 mg/kg/injection, schedule: Q01DX005 (ip), vehicle: suspension in saline) 92 % of control; (dose: 100.0 mg/kg/injection, schedule: Q01DX005 (ip), vehicle: suspension in saline) 120 % of control.

For the compound `c1cc[c]([Pb]([c]2ccccc2)([c]2ccccc2)[n]2ccc3ccccc32)cc1`, the T/C is 100 % of control (dose: 0.78 mg/kg/injection, schedule: Q01DX009 (ip), vehicle: saline); 103 % of control (dose: 1.05 mg/kg/injection, schedule: Q01DX009 (ip), vehicle: Klucel (hydroxypropylcellulose) (HPC)); 108 % of control (dose: 1.05 mg/kg/injection, schedule: Q01DX009 (ip), vehicle: other); 115 % of control (dose: 2.05 mg/kg/injection, schedule: Q01DX009 (ip), vehicle: saline); 94 % of control (dose: 2.08 mg/kg/injection, schedule: Q01DX009 (ip), vehicle: Klucel (hydroxypropylcellulose) (HPC)); 108 % of control and 109 % of control (dose: 2.08 mg/kg/injection, schedule: Q01DX009 (ip), vehicle: other). Also, the T/C (dose: 3.12 mg/kg/injection, schedule: Q01DX009 (ip), vehicle: Klucel (hydroxypropylcellulose) (HPC)) was 108 % of control; the T/C (dose: 3.12 mg/kg/injection, schedule: Q01DX009 (ip), vehicle: other) was 100 % of control; the T/C (dose: 4.68 mg/kg/injection, schedule: Q01DX009 (ip), vehicle: Klucel (hydroxypropylcellulose) (HPC)) is 109 % of control.

Take `CC(C)=CCO`: the T/C (dose: 100.0 mg/kg/injection, schedule: Q04DX003 (ip), vehicle: saline) was 100 % of control; the T/C (dose: 200.0 mg/kg/injection, schedule: Q04DX003 (ip), vehicle: saline) was 104 % of control; the T/C (dose: 400.0 mg/kg/injection, schedule: Q04DX003 (ip), vehicle: saline) was 104 % of control.

Take `CC(C)C(=O)c1ccco1`: the T/C was 95 % of control (dose: 6.25 mg/kg/injection, schedule: Q04DX003 (ip), vehicle: saline with Tween-80); 100 % of control (dose: 12.5 mg/kg/injection, schedule: Q04DX003 (ip), vehicle: saline with Tween-80); 90 % of control (dose: 25.0 mg/kg/injection, schedule: Q04DX003 (ip), vehicle: saline with Tween-80).

In the case of `N#Cc1sc2ccccc2c1CBr`, the T/C by setting is: (dose: 12.5 mg/kg/injection, schedule: Q01DX009 (ip), vehicle: Klucel (hydroxypropylcellulose) (HPC)) 104 % of control; (dose: 18.75 mg/kg/injection, schedule: Q04DX003 (ip), vehicle: Klucel (hydroxypropylcellulose) (HPC)) 108 % of control; under setting [3], 108 % of control; (dose: 37.5 mg/kg/injection, schedule: Q04DX003 (ip), vehicle: Klucel (hydroxypropylcellulose) (HPC)) 108 % of control.

For `Clc1ccc(-c2nc3ncccn3n2)cc1`, the T/C was 106 % of control (dose: 12.5 mg/kg/injection, schedule: Q01DX009 (ip), vehicle: saline with Tween-80); 95 % of control (dose: 25.0 mg/kg/injection, schedule: Q01DX009 (ip), vehicle: saline with Tween-80); 91 % of control and 95 % of control (dose: 50.0 mg/kg/injection, schedule: Q01DX009 (ip), vehicle: saline with Tween-80); 101 % of control under setting [8].

Regarding `C/C=C1\CN(C(=O)C(NC(=O)C(N)C(O)C(O)COC(N)=O)C2OC(n3cc(C(=O)O)c(=O)[nH]c3=O)C(O)C2O)C1C(=O)O` (configuration not stated) (tested in a mixture with another compound), the T/C (dose: 100.0 mg/kg/injection, schedule: Q01DX008 (ip), vehicle: saline) is 90 % of control and the T/C (dose: 200.0 mg/kg/injection, schedule: Q01DX008 (ip), vehicle: saline) is 100 % of control.

On to `COc1cccc2c1CCCC2=O`, for which the T/C was 96 % of control under setting [4], 104 % of control under setting [7] and 104 % of control under setting [5].

In the case of `OC1OC2COC(c3ccccc3)OC2C(O)C1O` (configuration not stated), the T/C was 107 % of control (dose: 75.0 mg/kg/injection, schedule: Q01DX009 (ip), vehicle: saline with Tween-80); 94 % of control (dose: 150.0 mg/kg/injection, schedule: Q01DX009 (ip), vehicle: saline with Tween-80); 91 % of control (dose: 300.0 mg/kg/injection, schedule: Q01DX009 (ip), vehicle: saline with Tween-80).

On to `COc1ncnc2nc[nH]c12`, for which the T/C is 95 % of control (dose: 100.0 mg/kg/injection, schedule: Q01DX009 (ip), vehicle: saline with Tween-80); 100 % of control (dose: 100.0 mg/kg/injection, schedule: Q04DX003 (ip), vehicle: saline with Tween-80); 91 % of control under setting [8]; 109 % of control (dose: 200.0 mg/kg/injection, schedule: Q04DX003 (ip), vehicle: saline with Tween-80); 86 % of control (dose: 400.0 mg/kg/injection, schedule: Q01DX009 (ip), vehicle: saline with Tween-80); 95 % of control (dose: 400.0 mg/kg/injection, schedule: Q04DX003 (ip), vehicle: saline with Tween-80).
